Data published in patent publication US9873724B2, “Pro-angiogenic peptides and peptide conjugates” (Yissum Research Development Company of the Hebrew …, priority 2013, dated 2018).
Values joined by “and” are separate entries in the source; they are usually repeats but may differ in a detail not shown here. Identical values can stand only once. Square brackets hold non-standard residues; d marks the D form. * marks the point of attachment. Myristoyl = CCCCCCCCCCCCCC(=O)*; Nle = CCCC[C@H](N)C(=O)O

System: mouse aortic rings
Experiment: Aortic ring assay ex-vivo (capillary sprouting from mouse aortic rings in collagen; repeated with VEGF)
Assay type: cell-based
Set-up: Capillary length 10 μM (10 μM) / Capillary length 20 μM / Capillary length 10 μM: unit not given here
Description: Thoracic aortas were dissected from 7- to 8-week-old male SABRA mice. The aortas were immediately transferred to Petri dishes containing BIO-MPM-1. The adventitia and small vessels around the aorta were carefully removed under a dissecting microscope, and transverse cuts of 0.75 mm were made. The resulting aortic rings were extensively rinsed and incubated overnight in BIO-MPM-1 containing penicillin-streptomycin. Subsequently, the rings were embedded in 50 μl collagen mix (7 parts collagen, 1 part 10× Eagle minimal essential medium, MEM, and 2 parts 0.15 M sodium bicarbonate) in 96-well plates (Nunc, Rochester, N.Y.). Solidification of the collagen solution was achieved by raising the pH to neutral and the temperature to 37° C. 150 μl BIO-MPM-1 containing penicillin-streptomycin and the tested factors or peptides) was added to the embedded rings, and the plates were incubated at 37° C. in a humidified 10% CO2 atmosphere. Medium containing factors and/or peptides was refreshed at days 4 and 8. After two weeks, the rings were fixed with 4% formaldehyde for 24 hours, followed by staining with crystal violet (0.02%) dissolved in ethanol and extensive washing to remove excessive stain. The effect of factors and peptides was examined in 4 wells (4 rings of mouse aortic rings) per assay. Micrographs of representative rings were taken using a digital camera (Nikon, Tokyo, Japan). Morphometric analysis of sprouting was performed manually using Image-Pro 4.5 software (Media Cybernetics, Silver Spring, Md.) according to Nissanov et al. (Lab Invest. 1995; 73:734-739). Nonstained rings were subjected to paraffin sections and hematoxylin and eosin (H&E) staining.
FIGS. 1A-1C represents aortic ring capillary length and FIGS. 2A-2C aortic ring capillary width. In the table: K-Flu is a Lysine residue coupled with a fluorescein moiety, 4BrPhe is 4-bromo-Phenylalanine, Dod is Dodecanoyl, Dec designates Decanoyl, Oct is Octanoyl, and Hex is Hexanoyl.
The aortic ring assay was repeated in the presence of 10 μM concentration of peptides AB-033 (SEQ ID NO: 13) and AB-034 (SEQ ID NO: 14) together with the pro-angiogenetic protein VEGF.

Myr-Gly-Nle-Arg-Pro-Tyr-NH2 (Myristoyl-G[Nle]RPY-NH2; SMILES CCCCCCCCCCCCCC(=O)NCC(=O)N[C@@H](CCCC)C(=O)N[C@@H](CCCNC(=N)N)C(=O)N1CCC[C@H]1C(=O)N[C@@H](Cc1ccc(O)cc1)C(N)=O) [AB-017]
capillary / vessel formation (in words) (aortic ring assay, FIGS. 1A-1C and 2A-2C): induce massive capillary formation
Capillary length 10 μM (peptide 10 μM, rings fixed after two weeks): 3,100 and 3,770
Capillary length 20 μM (peptide 20 μM, rings fixed after two weeks): 11,200 and 15,300
